Results as given in the CheMixHub viscosity set.
“And” between values parts separate entries of the source, which are not always exact repeats. Equal entries are not always repeated.

Assay: xn = mol fraction of the nth substance listed

CS(C)=O + O
viscosity
Settings	293.15 K	298.15 K
101 kPa, x1 = 0.01	1.11 mPa·s	–
101 kPa, x1 = 0.01869	–	1.01 mPa·s
101 kPa, x1 = 0.025	1.23 mPa·s	–
101 kPa, x1 = 0.039	1.38 mPa·s	–
101 kPa, x1 = 0.0406	–	1.19 mPa·s
101 kPa, x1 = 0.05	1.502 mPa·s	1.318 mPa·s
101 kPa, x1 = 0.055	1.55 mPa·s	–
101 kPa, x1 = 0.06619	–	1.44 mPa·s
101 kPa, x1 = 0.071	1.74 mPa·s	–
101 kPa, x1 = 0.09	1.97 mPa·s	–
101 kPa, x1 = 0.11	2.23 mPa·s	–
101 kPa, x1 = 0.13	2.54 mPa·s	–
101 kPa, x1 = 0.15	2.815 mPa·s	2.438 mPa·s
101 kPa, x1 = 0.16	2.9 mPa·s	–
101 kPa, x1 = 0.19	3.28 mPa·s	–
101 kPa, x1 = 0.2	–	3.156 mPa·s
101 kPa, x1 = 0.22	3.68 mPa·s	–
101 kPa, x1 = 0.25	4.042 mPa·s	3.4 mPa·s
101 kPa, x1 = 0.26	4.02 mPa·s	–
101 kPa, x1 = 0.3	4.26 mPa·s	–
101 kPa, x1 = 0.35	4.375 mPa·s and 4.4 mPa·s	3.763 mPa·s
101 kPa, x1 = 0.4	–	3.799 mPa·s
101 kPa, x1 = 0.41	4.29 mPa·s	–
101 kPa, x1 = 0.48	3.913 mPa·s and 3.97 mPa·s	3.395 mPa·s and 3.446 mPa·s
101 kPa, x1 = 0.57	3.54 mPa·s	–
101 kPa, x1 = 0.6	–	3.008 mPa·s
101 kPa, x1 = 0.67	3.08 mPa·s	–
101 kPa, x1 = 0.73	2.9 mPa·s	2.507 mPa·s
101 kPa, x1 = 0.8	–	2.375 mPa·s
101 kPa, x1 = 0.81	2.62 mPa·s	–
101 kPa, x2 = 0.047	–	2.054 mPa·s
101 kPa, x2 = 0.089	–	2.118 mPa·s
101 kPa, x2 = 0.186	–	2.298 mPa·s
101 kPa, x2 = 0.2	–	2.3 mPa·s
101 kPa, x2 = 0.3	–	2.7 mPa·s
101 kPa, x2 = 0.335	–	2.708 mPa·s
101 kPa, x2 = 0.522	–	3.449 mPa·s
101 kPa, x2 = 0.59	–	3.676 mPa·s
101 kPa, x2 = 0.651	–	3.764 mPa·s
101 kPa, x2 = 0.702	–	3.674 mPa·s
101 kPa, x2 = 0.743	–	3.467 mPa·s
101 kPa, x2 = 0.812	–	2.854 mPa·s
101 kPa, x2 = 0.867	–	2.232 mPa·s
101 kPa, x2 = 0.91	–	1.748 mPa·s
101 kPa, x2 = 0.945	–	1.382 mPa·s
101 kPa, x2 = 0.975	–	1.11 mPa·s
101.3 kPa, x1 = 0.012	1.112 mPa·s	0.986 mPa·s
101.3 kPa, x2 = 0.1906	2.569 mPa·s	2.299 mPa·s
101.3 kPa, x2 = 0.3252	2.966 mPa·s	2.63 mPa·s
101.3 kPa, x2 = 0.5203	3.891 mPa·s	3.38 mPa·s
101.3 kPa, x2 = 0.6501	4.352 mPa·s	3.727 mPa·s
101.3 kPa, x2 = 0.743	3.998 mPa·s	3.414 mPa·s
101.3 kPa, x2 = 0.8183	3.231 mPa·s	2.773 mPa·s
101.3 kPa, x2 = 0.8668	2.57 mPa·s	–
101.3 kPa, x2 = 0.9101	2.008 mPa·s	1.747 mPa·s
101.3 kPa, x2 = 0.9455	1.575 mPa·s	1.383 mPa·s
101.3 kPa, x2 = 0.9751	1.247 mPa·s	1.101 mPa·s
101.33 kPa, x1 = 0.00588	1.053 mPa·s	–
101.33 kPa, x1 = 0.012	1.112 mPa·s	–
101.33 kPa, x1 = 0.02498	1.264 mPa·s	–
101.33 kPa, x1 = 0.03901	1.402 mPa·s	–
101.33 kPa, x1 = 0.04864	1.515 mPa·s	–
101.33 kPa, x1 = 0.0545	1.559 mPa·s	–
101.33 kPa, x1 = 0.08993	2.009 mPa·s	–
101.33 kPa, x1 = 0.1332	2.589 mPa·s	–
101.33 kPa, x1 = 0.1469	2.743 mPa·s	–
101.33 kPa, x1 = 0.1874	3.319 mPa·s	–
101.33 kPa, x1 = 0.2998	4.296 mPa·s	–
101.33 kPa, x1 = 0.3498	4.385 mPa·s	–
101.33 kPa, x1 = 0.4498	4.091 mPa·s	–
101.33 kPa, x1 = 0.5665	3.498 mPa·s	–
101.33 kPa, x1 = 0.651	3.211 mPa·s	–
101.33 kPa, x1 = 0.7539	2.743 mPa·s	–
101.33 kPa, x1 = 0.847	2.514 mPa·s	–
101.33 kPa, x2 = 0.2097	–	2.291 mPa·s
101.33 kPa, x2 = 0.3132	–	2.568 mPa·s
101.33 kPa, x2 = 0.409	–	2.909 mPa·s
101.33 kPa, x2 = 0.503	–	3.197 mPa·s
101.33 kPa, x2 = 0.7032	–	3.569 mPa·s
101.33 kPa, x2 = 0.8053	–	2.858 mPa·s
101.33 kPa, x2 = 0.9021	–	1.787 mPa·s
